Values quoted from earlier work as cited in patent US20140349957A1, “Compositions for Photodynamic Therapy Chemically Modified to Increase Epithelia Penetration and Cellular Bioavailability” (YAGNA LIMITED, priority 2011, published 2014).

Tested on: cells which have incorporated the drug

**Q.** With `Cc1cn([C@H]2C[C@H](O)[C@@H](CO)O2)c(=O)[nH]c1=S` [4 thiothymidine, 4-thiothymidine] as the molecule, how does the “toxicity of exposure to drug alone” value (drug alone, no UV-A) read?
**A.** does not result in appreciable toxicity

**Q.** And the “toxicity to cells upon excitation” value (excitation at 335 nm (UV-A))?
**A.** results in toxicity to the cells which have incorporated the drug
